{
  "source": "patent US8911342B2",
  "about": "“Apparatus and method for pulsed electrical field treatment” (Re5 ApS, priority 2009, dated 2014)",
  "test_system": "Human neural cells line from sympatic ganglia - SHSY-5Y",
  "conditions": "sertraline 10 μM 24 hours, then PEMF 2 hrs at 50 or 55 Hz, vs control cells, PCR array",
  "data": [
    {"smiles": "CN[C@H]1CC[C@@H](c2ccc(Cl)c(Cl)c2)c2ccccc21", "note": "[sertraline, (1S,4S)-4-(3,4-dichlorophenyl)-N-methyl-1,2,3,4-tetrahydronaphthalen-1-amine]", "values": [
      {"measurement": "Fold increase in mRNA, Bone morphonogenic Protein 1 (BMP1)", "value": 4, "unit": "fold"},
      {"measurement": "Fold increase in mRNA, Bone morphonogenic Protein 5 (BMP5)", "value": 8, "unit": "fold"},
      {"measurement": "Fold increase in mRNA, IL-17B", "value": 8, "unit": "fold"},
      {"measurement": "Fold increase in mRNA, IL-18", "value": 4, "unit": "fold"},
      {"measurement": "Fold increase in mRNA, IL-20", "value": 4, "unit": "fold"},
      {"measurement": "Fold increase in mRNA, IL-21", "value": 4, "unit": "fold"},
      {"measurement": "Fold increase in mRNA, Il-8", "value": 8, "unit": "fold"},
      {"measurement": "Fold increase in mRNA, Interleukin 10 (IL-10)", "value": 1, "unit": "fold"},
      {"measurement": "Fold increase in mRNA, TNF SF10", "value": 8, "unit": "fold"},
      {"measurement": "Fold increase in mRNA, TNF SF11", "value": 2, "unit": "fold"},
      {"measurement": "Fold increase in mRNA, TNFR SF11", "value": 8, "unit": "fold"},
      {"measurement": "Fold increase in mRNA, Transforming growth factor beta 3 (TGFB3)", "value": 5, "unit": "fold"},
      {"measurement": "Fold increase in mRNA, Tumor necrosis factor (TNF)", "value": 8, "unit": "fold"}
    ]}
  ]
}
